Patent US11166460B2, “α-amino acrylate microbicide, and preparation method therefor and uses thereof” (priority 2017, dated 2021)
Values after ≈ are worked out from the molar mass of the structure shown. Read-outs that look alike come from different tables or passages of the source.

Experiments:
Cercospora arachidicola = test: Fungicidal activity, fungi growth rate method, CA; type: cell-based; details: Mycosphaerella arachidis, 50 μg/mL
[1] = tested on: Phytophthora infestans (Mont) de Bary; test: microbe, parasite or virus in culture; type: cell-based; details: Phytophthora infestans
Pellicularia sasakii = test: Fungicidal activity, fungi growth rate method, PS; type: cell-based; details: 50 μg/mL
[2] = tested on: tobacco mosaic virus (TMV); test: Anti-TMV protective activity (protection mode), live friction inoculation on tobacco seedlings; type: in vivo; details: Tobacco mosaic virus, read-out: Anti-TMV activity, Protection effect (inhibition)
[3] = tested on: tobacco mosaic virus (TMV); test: Anti-TMV inactivation activity (inactivation mode), compound mixed with TMV before inoculation of tobacco leaves; type: in vivo; details: Tobacco mosaic virus, read-out: Anti-TMV activity, Inactivation effect (inhibition)
[4] = tested on: tobacco mosaic virus (TMV); test: Anti-TMV inducing activity (induction mode), tobacco seedlings; type: in vivo; details: Tobacco mosaic virus, read-out: Anti-TMV activity, Induction effect (inhibition), 100 μg/mL, tobacco seedlings
Sclerotinia sclerotiorum = test: microbe, parasite or virus in culture; type: cell-based; details: Sclerotinia sclerotiorum; for inhibition at 50 µg/mL: 50 μg/mL
wheat Gibberella zeae = test: microbe, parasite or virus in culture; type: cell-based; details: Fusarium graminearum
Botrytis cinerea = test: Fungicidal activity, fungi growth rate method, BC; type: cell-based; details: Botrytis cinerea, 50 μg/mL
Physalospora piricola = test: Fungicidal activity, fungi growth rate method, PP; type: cell-based; details: 50 μg/mL
[5] = tested on: tobacco mosaic virus (TMV); test: Anti-TMV curative activity (treatment mode), live friction inoculation on tobacco seedlings; type: in vivo; details: Tobacco mosaic virus, read-out: Anti-TMV activity, Curative effect (inhibition), 100 μg/mL, tobacco seedlings, checked on seventh day
Rhizoctonia cerealis = test: Fungicidal activity, fungi growth rate method, RC; type: cell-based; details: Ceratobasidium cereale, 50 μg/mL
Alternaria solani = test: Fungicidal activity, fungi growth rate method, AS; type: cell-based; details: Alternaria solani, 50 μg/mL
[6] = read-out: Fungicidal activity, inhibition, CA
[7] = read-out: Fungicidal activity, inhibition, PI
[8] = read-out: Fungicidal activity, inhibition, PS
[9] = read-out: Fungicidal activity, inhibition, SS
[10] = read-out: Fungicidal activity, inhibition, GZ
[11] = read-out: Fungicidal activity, inhibition, BC
[12] = read-out: Fungicidal activity, inhibition, PP
[13] = read-out: Fungicidal activity, inhibition, RC
[14] = read-out: Fungicidal activity, inhibition, AS
[15] = read-out: Fungicidal activity (inhibition) against SS: Sclerotinia sclerotiorum

SMILES	inhibition at 50 µg/mL (Cercospora arachidicola; [6])	inhibition at 50 µg/mL [1, 7]	inhibition at 50 µg/mL (Pellicularia sasakii; [8])	inhibition at 100 µg/mL [2]	melting point	inhibition at 100 µg/mL [3]	inhibition at 100 µg/mL [4]	inhibition at 50 µg/mL (Sclerotinia sclerotiorum; [9])	inhibition at 50 µg/mL (wheat Gibberella zeae; [10])	inhibition at 50 µg/mL (Botrytis cinerea; [11])	inhibition at 50 µg/mL (Physalospora piricola; [12])	inhibition at 100 µg/mL [5]	inhibition at 50 µg/mL (Rhizoctonia cerealis; [13])	inhibition at 50 µg/mL (Alternaria solani; [14])	inhibition at 50 µg/mL (Sclerotinia sclerotiorum; [15])	further results
O=C(NCc1cccc(Br)c1)/C(=C/c1ccccc1)NC(=O)c1ccccc1 [Compound 51, N-[(1Z)-2-phenyl-1-[[(3-bromophenylmethyl)amino]carbonyl]ethenyl]benzamide]	15%	21%	14%	11%	180 to 182 °C	69%	14%	50%	43%	24%	18%	12%	28%	25%		
O=C(NCc1ccccc1Br)/C(=C/c1ccccc1)NC(=O)c1ccccc1 [Compound 52, N-[(1Z)-2-phenyl-1-[[(2-bromophenylmethyl)amino]carbonyl]ethenyl]benzamide]	11%	16%	14%	20%	178 to 180 °C	31%	47%	38%	29%	18%	6%	12%	18%	11%		
O=C(NCc1ccccc1)/C(=C/c1ccccc1)NC(=O)c1ccccc1 [Compound 53, N-[(1Z)-2-phenyl-1-[[(phenylmethyl)amino]carbonyl]ethenyl]benzamide]	18%	5%	8%	33%	169 to 171 °C	58%	0%	75%	23%	16%	13%	55%	5%	16%	75%	inhibition at 50 µg/mL (Cercospora arachidicola; read-out: Fungicidal activity (inhibition) against CA: Cercospora arachidicola): < 25%; inhibition at 50 µg/mL ([1]; read-out: Fungicidal activity (inhibition) against PI: Phytophthora infestans (Mont) de Bary): < 25%; inhibition at 50 µg/mL (Pellicularia sasakii; read-out: Fungicidal activity (inhibition) against PS: Pellicularia sasakii): < 30%; inhibition at 50 µg/mL (wheat Gibberella zeae; read-out: Fungicidal activity (inhibition) against GZ: wheat Gibberella zeae): < 45%; inhibition at 50 µg/mL (Botrytis cinerea; read-out: Fungicidal activity (inhibition) against BC: Botrytis cinerea): ≤ 20%; inhibition at 50 µg/mL (Physalospora piricola; read-out: Fungicidal activity (inhibition) against PP: Physalospora piricola): < 20%; inhibition at 50 µg/mL (Rhizoctonia cerealis; read-out: Fungicidal activity (inhibition) against RC: Rhizoctonia cerealis): < 20%; inhibition at 50 µg/mL (Alternaria solani; read-out: Fungicidal activity (inhibition) against AS: Alternaria solani): < 30%
COc1ccc(CNC(=O)/C(=C/c2ccccc2)NC(=O)c2ccccc2)cc1 [Compound 54, N-[(1Z)-2-phenyl-1-[[(4-methoxyphenylmethyl)amino]carbonyl]ethenyl]benzamide]	16%	2%	17%	0%	138 to 140 °C	28%	0%	75%	42%	12%	13%	49%	17%	16%	60 to 80%	
O=C(NCc1ccc(F)cc1)/C(=C/c1ccccc1)NC(=O)c1ccccc1 [Compound 55, N-[(1Z)-2-phenyl-1-[[(4-fluorophenylmethyl)amino]carbonyl]ethenyl]benzamide]	10%	19%	12%	0%	199 to 201 °C	59%	4%	75%	34%	12%	21%	45%	12%	28%	60 to 80%	
O=C(NCc1ccc(Cl)cc1)/C(=C/c1ccccc1)NC(=O)c1ccccc1 [Compound 56, N-[(1Z)-2-phenyl-1-[[(4-chlorophenylmethyl)amino]carbonyl]ethenyl]benzamide]	14%	5%	12%	0%	202 to 204 °C	58%	4%	100%	19%	22%	4%	30%	17%	24%	100%	EC90 (Sclerotinia sclerotiorum; read-out: EC90 against S. sclerotiorum in vitro): 1260 µg/mL (≈ 3.21 mM)
O=C(NCc1ccc(C(F)(F)F)cc1)/C(=C/c1ccccc1)NC(=O)c1ccccc1 [Compound 57, N-[(1Z)-2-phenyl-1-[[(4-trifluoromethylphenylmethyl)amino]carbonyl]ethenyl]benzamide]	4%	0%	19%	4%	167 to 168 °C	61%	0%	50%	31%	10%	0%	52%	10%	16%		
O=C(NCc1cccs1)/C(=C/c1ccccc1)NC(=O)c1ccccc1 [Compound 58, N-[(1Z)-2-phenyl-1-[[(2-thienylmethyl)amino]carbonyl]ethenyl]benzamide]	6%	21%	14%	0%	210 to 212 °C	0%	2%	47%	29%	18%	9%	17%	18%	21%		
